{
  "source": "paper PMC6977461",
  "about": "(Chemical Science, 2019)",
  "key": {"GLP-1R [1]": {"target": "T1, GLP-1R (Homo sapiens, UniProt P43220)", "T1 sequence (P43220 24-463)": "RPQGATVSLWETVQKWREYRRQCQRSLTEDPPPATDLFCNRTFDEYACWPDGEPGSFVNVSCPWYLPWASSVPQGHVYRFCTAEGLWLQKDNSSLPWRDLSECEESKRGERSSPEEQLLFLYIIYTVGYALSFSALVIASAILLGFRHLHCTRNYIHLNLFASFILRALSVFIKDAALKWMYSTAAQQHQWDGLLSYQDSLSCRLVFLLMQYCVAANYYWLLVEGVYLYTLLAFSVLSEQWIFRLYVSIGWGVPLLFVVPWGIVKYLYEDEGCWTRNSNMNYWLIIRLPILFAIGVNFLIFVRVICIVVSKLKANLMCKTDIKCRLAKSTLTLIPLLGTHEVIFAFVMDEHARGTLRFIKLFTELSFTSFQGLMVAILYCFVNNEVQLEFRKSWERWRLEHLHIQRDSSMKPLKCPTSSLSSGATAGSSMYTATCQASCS", "experiment": "β-arrestin-2 recruitment assay in PathHunter CHO-GLP-1R cells", "format": "cell-based", "design": "host or cells: PathHunter CHO-GLP-1R-βarr2 cells", "settings": "30 min stimulation at 37 °C, n = 5, versus non-ureido parents 10 and 13", "description": "signal measured at 665 nm by that measured at 620 nm (ratio). The results are expressed as a percent […]\ntested in each experiment at several concentrations to generate a concentration-response curve from which its EC50 value and SE are calculated using GraphPad Prism.\nIn vitro pharmacology on immortalised CHO-GLP-1R cells (EC50: Method C3) PathHunter CHO-GLP-1R cells were stimulated for 30 min at 37°C with indicated concentration of agonist in serum free medium without phosphodiesterase inhibitors. The reaction was terminated by addition of cAMP detection reagents (cAMP Dynamic 2, Cisbio) and read by HTRF.\nβ-arrestin-2 recruitment assay […]\nagonist in serum free medium. The reaction was terminated by addition of PathHunter detection reagents (DiscoverX) and luminescent signal recorded.\nCalculation of signal bias\nBiased signalling was quantified using a modified form of the operational model.[6] LogR values were calculated for each ligand in each assay, and ∆LogR were determined by subtracting from the […]\nBias was then determined as ∆∆LogR by subtracting ∆LogR for […]"}, "[2]": {"experiment": "mouse plasma degradation assay (Methods MP1-MP3)", "format": "in vitro ADME", "settings": "mouse plasma diluted 1/1 with PBS; mouse plasma/PBS pH 7.4 (1/1), 5 µM, 37 °C, acetonitrile quench, LC-MS extracted ion chromatogram; MP1 for 2-8, MP2 for 9-11, MP3 for 12-14; mean, n = 3; read-out: Mouse plasma t1/2 (converted)", "description": "The oligomer was then diluted 1/50 with a solution of plasma/PBS pH 7.4 (1/1) to afford a final concentration of 5μM and incubated at 37°C. […] (t = 0 min was determined using the reaction without plasma). The samples were frozen at -80°C before analysis. […] The supernatant was analyzed by LC-MS. The time course of oligomer degradation was determined by integrating the area of the peak in the extracted ion chromatogram. […] The oligomer was then diluted 1/50 with a solution of plasma/PBS pH 7.4 (1/1) to afford a final concentration of 5μM and incubated at 37°C. […] The oligomer was then diluted 1/50 with a solution of plasma/PBS pH 7.4 (1/1) to afford a final concentration of 5μM and incubated at 37°C. […] Animals. […] A standard chow diet (RM1 (E) 801492, SDS) and tap water were provided ad libitum. All animal protocols done by Physiogenex S.A.S were reviewed and approved by the local (Comité […] national ([…]"}, "GLP-1R [3]": {"target": "T1, GLP-1R", "experiment": "cAMP production functional assay in HEK293 cells transfected with GLP-1R (Method C1)", "format": "cell-based", "design": "host or cells: HEK-293T", "method": " HEK-293T cells (Multispan inc., lot#.DC1267-062017) were suspended in cell culture media\n(DMEM 1X + GlutaMAX (Gibco 31966-021)) complemented with FBS 10% (Sigma Aldrich\n βTC6 cells were suspended in HBSS buffer (Invitrogen) complemented with 20 mM HEPES (pH\nIn vitro pharmacology on HEK-293T cells (EC50: Method C1)\ncells (Multispan inc., lot#.DC1267-062017) was determined by measuring their effects on cAMP\nproduction using the HTRF detection method (performed by UREkA SARL). The cells were distributed\nin 384-well microplates at a density of 1.0x10^4 cells/well. Stock solutions of the test compounds or the\nreference agonist were prepared at a concentration of 1 mM in DMSO. Then, compounds to be tested\nwere diluted in cell culture media and transferred to the plate containing the cells to reach final assay"}, "C57BL/6J mice": {"system": "C57BL/6J mice", "experiment": "dose-response study in healthy mice, IPGTT 6 h after agonist", "format": "in vivo, mouse", "description": "Mice were lightly fasted (4 hours) before IP administration of varying doses of each agonist or vehicle (100 µL saline). After a further 6 hours, blood glucose was measured (GlucoRx) from the tail followed by IP administration of 2 g/kg 20% glucose. Blood glucose was monitored at 20, 40 and 60 minute time- […]\nperformed on the area-under-curve for each set of data.\nStudy in db/db mice (15 days).\nAfter the acclimation period of 5 days, male db/db mice 8 weeks old (Charles River laboratories) were randomized into groups (n=10) according to their body weight, HOMA-IR and HbA1C measured after an overnight fast and 8 non diabetic mice were excluded. Mice were chronically treated during 15 days via s.c. route (once daily) at around 8AM with the vehicle or with 100 µg kg-1 (25 nmol kg-1) of the oligomers. Formulation: 20 µg mL-1 in PBS 1×. On the 7th day of treatment, fed blood glucose was […]\nOn the 12th day of treatment, mice were fasted 6 hours and an OGTT (glucose 1 g kg-1 p.o.) was performed 6 hours (2 PM) after the dosing. Blood glucose was […]\nOn the 15th day of treatment, mice were fasted 6 hours and an ITT (insulin 2 U kg-1 i.p.) was performed 6 hours (2 PM) after the dosing. […]\nsamples were collected for measuring HbA1c just before the start of the treatments and at the end of […]\nFifteen mice (male C57BL/6J mice (Janvier Labs, France) 9 weeks old, 20-25 g) were treated with GLP-1 analogues via i.v. injections (2 mg kg-1) formulated at 1 mg mL-1 in PBS 1×. After different time points mice were sacrificed and blood sample were collected. The plasma was separated by centrifugation and the samples were frozen at -80°C before analysis. A volume of 400 µL of each sample of plasma was mixed with 1 ml of acetonitrile to precipitate the protein and extract the compound. The sample were then vortexed and centrifuged (15 000 × g, 5 min, 16 °C) to sediment the precipitated protein.\nThe supernatant was analysed by LC-MS/MS using a UHPLC coupled to LC-MS 8030 Shimadzu triple […]\nMolecular dynamics simulation of GLP-1R in complex with ureidopeptide 3 […]\nHuman GLP-1R which shares […]"}, "SNAP-tagged human GLP-1R": {"target": "T2, SNAP-tagged human GLP-1R (Homo sapiens, UniProt P43220)", "T2 construct": "host or cells: INS-1 832/3 cells with endogenous GLP-1R deleted by CRISPR/Cas9", "T2 sequence (P43220 24-463)": "as above", "experiment": "SNAP-GLP-1R internalization by confocal microscopy in INS-1 832/3 cells", "format": "cell-based", "settings": "10 nM ligand, 30 min, versus non-ureido peptides"}, "[4]": {"settings": "healthy C57BL/6J mice, 0.01 to 10 nmol kg-1 i.p., IPGTT 6 h after dose, 3-parameter fit of AUC, n = 8"}},
  "note": "*1 amine or outer side, *2 acyl side, *3 side chain or, on linkers, in order; H or OH if unused. The star is where a group is joined. X1 = C[C@@H](CN*)NC(=O)[C@@H](N)Cc1c[nH]cn1; CO = O=C([*:1])[*:2]",
  "data": [
    {"substance": "{X1-CO}-EGTFTSDLSKQLEEEAVRLFIEWLKNGGPSSGAPPSKKKKKK-NH2 [compound 14]", "values": [
      {"measurement": "recruitment of β-arrestin to GLP-1R", "setting": "GLP-1R [1]", "value": "selectively diminished"},
      {"measurement": "half-life at 5 µM", "setting": "[2]", "value": 6.6, "unit": "h"},
      {"measurement": "EC50", "setting": "GLP-1R [3]; HEK-293T cells exogenously expressing human GLP-1R, cAMP by HTRF, 10 min at 37 °C, Method C1, mean, n = 3 (2: n = 6), read-out: EC50 (GLP-1R potency)", "value": 1.1, "unit": "pM"},
      {"measurement": "Potency (%), percentage of potency compared to GLP-1-NH2", "setting": "GLP-1R [3]; from EC50 in HEK293 GLP-1R cAMP assay", "value": 287, "unit": "%"},
      {"measurement": "improvement of ED50 versus parent peptide", "setting": "C57BL/6J mice; 11 versus exenatide (9), 14 versus LixiL (13)", "value": "five-fold improvement"},
      {"measurement": "ED50 (printed in Fig. 4)", "setting": "C57BL/6J mice; [4]", "value": 0.47},
      {"measurement": "ED50 in vivo", "setting": "C57BL/6J mice; [4]", "value": 0.46, "unit": "nmol/kg"},
      {"measurement": "endocytosis of the GLP-1R", "setting": "SNAP-tagged human GLP-1R", "value": "noticeably reduced"}
    ]}
  ]
}
